Source: PMC11284600, “Many human pharmaceuticals are weak inhibitors of the cytochrome P450 system in rainbow trout (Oncorhynchus mykiss) liver S9 fractions” (Frontiers in Toxicology, 2024)
Structures can show the parent of a compound that is named as a salt.

Tests used:
[1] = target: T1, CYP3A-like 7-benzyloxy-4-trifluoromethylcoumarin O-debenzylase (BFCOD) activity in rainbow trout liver S9 fractions (Oncorhynchus mykiss, UniProt O42563); experiment: BFCOD inhibition in RT-S9 (IC50 shift assay); settings: within the tested concentration range
T1 sequence (O42563 1-518): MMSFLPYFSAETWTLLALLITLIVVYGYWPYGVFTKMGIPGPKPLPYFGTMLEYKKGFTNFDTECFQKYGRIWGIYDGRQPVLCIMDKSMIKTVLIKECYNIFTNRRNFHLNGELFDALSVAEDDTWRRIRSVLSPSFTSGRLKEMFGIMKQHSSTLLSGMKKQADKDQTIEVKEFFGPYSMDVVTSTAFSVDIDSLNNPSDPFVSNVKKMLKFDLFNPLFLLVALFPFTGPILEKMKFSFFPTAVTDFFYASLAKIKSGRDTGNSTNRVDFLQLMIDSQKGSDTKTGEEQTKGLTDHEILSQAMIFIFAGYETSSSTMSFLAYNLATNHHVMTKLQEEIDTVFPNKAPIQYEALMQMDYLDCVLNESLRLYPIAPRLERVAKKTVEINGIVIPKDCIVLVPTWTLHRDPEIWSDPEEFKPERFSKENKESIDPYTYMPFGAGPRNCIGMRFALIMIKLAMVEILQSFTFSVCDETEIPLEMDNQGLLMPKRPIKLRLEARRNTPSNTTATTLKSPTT
Method: (§1) Commercially available rainbow trout (O. mykiss) liver S9 fractions were used as the enzyme source for the in vitro P450 inhibition assays (RTL-S9, total protein concentration 20 mg/mL, Primacyt Cell Culture Technology GmbH).
(§2) The inhibitory impacts of the test substances toward the rainbow trout liver P450 system in vitro were assessed based on EROD and BFCOD as the marker reactions for CYP1A- and CYP3A-like isoenzyme activities, respectively. […] In this study, the EROD (CYP1A) and BFCOD (CYP3A) activities were determined using 0.5 mg/mL RT-S9 (total protein) concentration and 1 or 2 mM NADPH, respectively. […] All incubations were performed in duplicate in a total volume of 100 µL of potassium phosphate buffer (0.1 M, pH 7.8), at 11°C ± 1°C on a thermostated orbital shaker (LLG Labware). The reactions were terminated by the addition of 37.5 μL of the quenching solution (0.5 M Trizma base/acetonitrile 20:80, v/v). […] The quantitation of the metabolites (resorufin or HFC) was based on linear regression of the respective standards prepared in the potassium phosphate buffer. Negative control incubations were performed separately without the marker substrate, without cofactors, and without RT-S9 to ensure that the detected fluorescence signals arise from the metabolic conversion of the marker substrates (ER or BFC) into their respective metabolites (resorufin or HFC, respectively).
(§3) In this study, the preincubation was performed using three different protocols A-C (Table 2). In the first protocol, the test substance (each separately at six different concentrations between 0.01 and 500 µM) and RT-S9 were preincubated without any cofactors, and the marker reaction was initiated by the addition of the marker substrate (ER or BFC) and NADPH (Protocol A). This enabled the determination of the inhibitory impact of the parent form of the test substance on the respective marker activity. In the second protocol, the test substance and RT-S9 were preincubated together with NADPH, and the marker reaction was initiated by the addition of the marker substrate (Protocol B). In this manner, the test substance could undergo P450 metabolism already during the preincubation step, which may reduce its concentration and thus the inhibitory impact toward the marker reactions, or result in the formation of reactive or inhibitory metabolites, which typically increases the inhibitory impact compared with the parent form (Protocol A). […] In this manner, the test substance could undergo both P450 and phase II metabolism already during the preincubation step, which may likewise reduce its concentration and inhibitory impact toward the marker reactions, and even help eliminate the possible reactive metabolites via glutathione conjugation. […] Additionally, positive control incubations of the marker substrates (ER or BFC) without the test substance (zero inhibitor concentration) were included in each series to determine the basal EROD or BFCOD activity in RT-S9.
(§4) The residual solvent concentration was kept constant at all inhibitor concentrations, including zero, to eliminate its impact on the IC50 concentrations derived from the empirical data. The IC50 shifts for Protocols B and C were calculated according to Eq. 2: IC50 shift=IC50,Protocol A/IC50,Protocol B or Protocol C (2)
(§5) In this manner, the impact of the test substance’s own metabolism (during the preincubation step) on the inhibitory impact could be evaluated.

Human CYP1A = settings: ref Drugbank unless otherwise stated (Dragovic et al., 2013; Conard and Ober 1984; Niwa et al., 2005); cited from earlier work
[2] = set-up: method as in PubChem; settings: (e) empirical; ref PubChem; cited from earlier work
[3] = target: T2, CYP3A-like BFCOD activity (Oncorhynchus mykiss, UniProt O42563); experiment: BFCOD inhibition in RT-S9 (IC50 shift assay); settings: both, Christophersen, Bornhoeved, rainbow trout (Oncorhynchus mykiss), s9, pH 7.8
T2 sequence (O42563 1-518): T1 sequence (O42563 1-518)
Method: as §1, §2, §3, §4, §5

[4] = set-up: method as in Chemaxon; settings: pH 7.8; (e) empirical; ref Chemaxon; cited from earlier work
[5] = Unbound fraction in RT-S9 by rapid equilibrium dialysis; assay type: in vitro ADME, rainbow trout (Oncorhynchus mykiss); settings: rainbow trout liver S9 fractions (RT-S9), 10 µM test substance, 1 mg/mL RT-S9, pH 7.8, 11°C, n = 3, read-out: Unbound fraction (fU,RT-S9)
Method: The unbound (free) fractions of the test substances in RT-S9 (fU,RT-S9) were determined using rapid equilibrium dialysis assay (RED, Thermo Fisher Scientific), which exploits two-compartment inserts separated by a dialysis membrane with a molecular weight cut-off of 8,000 Da. In the RED assay, each test pharmaceutical (10 μM) was incubated in triplicate with RT-S9 (1 mg/mL) in 50 mM potassium phosphate buffer (pH 7.8) in a total volume of 300 µL on one side of the membrane (protein-containing chamber), and 350 μL of the plain phosphate buffer on the other side (protein-free chamber). To reach equilibrium, the samples were incubated on an orbital shaker (C25KC Incubator shaker, New Brunswick Scientific, 120 rpm) at 11°C for 4 h. Next, 50 µL aliquots were collected from both chambers separately and diluted by adding 50 µL of the plain buffer (to the protein-containing sample) or 50 μL of 1 mg/mL RT-S9 in the buffer (to the protein-free sample). Finally, the RT-S9 protein was precipitated by the addition of acetonitrile (+200 μL) to both samples separately, followed by incubation on ice for 30 min and centrifugation (16100 g, 15 min). The test substance concentrations in the supernatants of both samples were determined using liquid chromatography. The instrumentation and the analytical methods used for chromatographic analyses are described in detail in the Supplementary Table S2. The unbound fractions of the test substances in RT-S9 (fU,RT-S9) were calculated according to Eq. 3: fU,RT−S9=1− PC−PF/PC (3) where [PC] and [PF] are the test substance concentrations in the samples collected from protein-containing and protein-free chambers, respectively. To account for the test substance’s binding to the RT-S9, the nominal IC50 values were corrected for unbound fraction (fU,RT-S9) according to Eq. 4: Unbound IC50=Nominal IC50×fU,RT−S9 (4)

[6] = test system: CYP1A-like ethoxyresorufin O-deethylase (EROD) activity; experiment: in vitro; settings: both, Christophersen, Bornhoeved, rainbow trout (Oncorhynchus mykiss); for inhibition at 10 min: pH 7.8
Method: as §1, §2, §3, §4, §5

CYP1A-like EROD activity = experiment: in vitro; settings: both, Christophersen, Bornhoeved, rainbow trout (Oncorhynchus mykiss)
Method: as §1, §2, §3, §4, §5

[7] = test system: CYP1A-like ethoxyresorufin O-deethylase (EROD) activity in rainbow trout liver S9 fractions; experiment: in vitro
Method: as §1, §2, §3, §4, §5

[8] = pH 7.8, EROD inhibition in RT-S9, Nominal IC50

For `CN(C)CCc1c[nH]c2ccc(C[C@H]3COC(=O)N3)cc12` [Zolmitriptan, zolmitriptan], the “BFCOD inhibition in RT-S9 (in words)” value [1] is listed as “did not significantly inhibit”, the “Human CYP1A interactions: substrate status” value (Human CYP1A) is listed as “Substrate” and the LogKOW [2] is listed as 1.792 (e).

In the case of `CNCC[C@@H](Oc1ccccc1C)c1ccccc1` [Atomoxetine, atomoxetine hydrochloride], the IC50 at 20 min [3] is given as greater than 25 µM, the “BFCOD inhibition in RT-S9 (in words)” value [1] is given as “did not significantly inhibit” and the Water solubility [4] is given as 27.8 (e) mg/mL. The fraction unbound at 4 h, 10 µM [5] was 0.2 ± 0.03, the inhibition at 10 min [6] was no more than 50% and the IC50 at 10 min [6, 8] was greater than 100 µM. For the same molecule, the IC50 at 10 min ([6]; pH 7.8, EROD inhibition in RT-S9, Unbound IC50) was 20 ± 4 µM, the IC50 shift at 10 min (CYP1A-like EROD activity; s9, pH 7.8, EROD inhibition in RT-S9, IC50 shift (A/B)) was 0.9 ± 0.1 and the IC50 shift at 10 min (CYP1A-like EROD activity; s9, pH 7.8, EROD inhibition in RT-S9, IC50 shift (A/C)) was 1.1. For the same molecule, the “EROD inhibition in RT-S9 (in words)” value [7] was “inhibited selectively only EROD activity”.

In the case of `O=C(NCC1CCCCN1)c1cc(OCC(F)(F)F)ccc1OCC(F)(F)F` (stereo not drawn) [Flecainide, flecainide acetate], the IC50 at 20 min [3] is listed as greater than 25 µM, the “BFCOD inhibition in RT-S9 (in words)” value [1] is listed as “did not significantly inhibit” and the “Human CYP1A interactions: substrate status” value (Human CYP1A) is listed as “Substrate”. It also gave a fraction unbound at 4 h, 10 µM [5] of 0.36 ± 0.03, an inhibition at 10 min [6] of no more than 50% and an IC50 at 10 min [6, 8] greater than 100 µM. For the same molecule, the “EROD inhibition in RT-S9 (in words)” value [7] was “inhibited selectively only EROD activity” and the IC50 [7] was 82 ± 14 µM.
